In the supplement of paper PMC10307832:

What was measured:
Assay in all cases: relative viability (nuclei count vs DMSO), 5 days (fraction); higher = more cells survive
NCI-H727 = system: NCI-H727
Procedure, shortened: (§1)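 Lung cancer cell lines were seeded in 1536-well plates and dosed by pin tool the next day, with either a single drug or a fixed anchor-drug dose combined with five library-drug doses (not always all listed) spaced in √10 steps. Five days later, one step fixed the cells and stained their nuclei (final 0.05% Triton X-100, 1% formaldehyde, 1 ug/ml Hoechst), and nuclei were counted on 4× images. Relative viability is the nuclei count in treated wells divided by the count in vehicle wells, and each value is the median of duplicate plates.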

COR-L 105 = system: COR-L 105
Procedure, shortened: as §1

ABC-1 = system: ABC-1
Procedure, shortened: as §1

HCC-366 = system: HCC-366
Procedure, shortened: as §1

NCI-H2009 = system: NCI-H2009
Procedure, shortened: as §1

HARA = system: HARA
Procedure, shortened: as §1

LU99A = system: LU99A
Procedure, shortened: as §1

LK-2 = system: LK-2
Procedure, shortened: as §1

NCI-H2170 = system: NCI-H2170
Procedure, shortened: as §1

NCI-H1437 = system: NCI-H1437
Procedure, shortened: as §1

EKVX = system: EKVX
Procedure, shortened: as §1

NCI-H1650 = system: NCI-H1650
Procedure, shortened: as §1

BEN = system: BEN
Procedure, shortened: as §1

201T = system: 201T
Procedure, shortened: as §1

PC-14 = system: PC-14
Procedure, shortened: as §1

NCI-H661 = system: NCI-H661
Procedure, shortened: as §1

CAL-12T = system: CAL-12T
Procedure, shortened: as §1

NCI-H3122 = system: NCI-H3122
Procedure, shortened: as §1

COR-L23 = system: COR-L23
Procedure, shortened: as §1

NCI-H1666 = system: NCI-H1666
Procedure, shortened: as §1

NCI-H838 = system: NCI-H838
Procedure, shortened: as §1

C=C1C(=O)O[C@@H](CCCCCCCC)[C@@H]1C(=O)O [C-75] + CS(=O)(=O)CCNCc1ccc(-c2ccc3ncnc(Nc4ccc(OCc5cccc(F)c5)c(Cl)c4)c3c2)o1 [Lapatinib] (partner 2 µM)
relative viability (NCI-H727; first compound 0.08 µM): 0.881
relative viability (NCI-H727; first compound 0.253 µM): 1.54
relative viability (NCI-H727; first compound 0.8 µM): 0.711
relative viability (NCI-H727; first compound 2.53 µM): 0.841
relative viability (NCI-H727; first compound 8 µM): 1.22
relative viability (COR-L 105; first compound 0.08 µM): 0.299
relative viability (COR-L 105; first compound 0.253 µM): 0.315
relative viability (COR-L 105; first compound 0.8 µM): 0.374
relative viability (COR-L 105; first compound 2.53 µM): 0.309
relative viability (COR-L 105; first compound 8 µM): 0.414
relative viability (ABC-1; first compound 0.08 µM): 1.1
relative viability (ABC-1; first compound 0.253 µM): 1.33
relative viability (ABC-1; first compound 0.8 µM): 1.17
relative viability (ABC-1; first compound 2.53 µM): 0.981
relative viability (ABC-1; first compound 8 µM): 0.929
relative viability (HCC-366; first compound 0.08 µM): 1.04
relative viability (HCC-366; first compound 0.253 µM): 1.19
relative viability (HCC-366; first compound 0.8 µM): 1
relative viability (HCC-366; first compound 8 µM): 0.872
relative viability (NCI-H2009; first compound 0.08 µM): 0.984
relative viability (NCI-H2009; first compound 0.253 µM): 0.88
relative viability (NCI-H2009; first compound 0.8 µM): 0.901
relative viability (NCI-H2009; first compound 2.53 µM): 0.939
relative viability (NCI-H2009; first compound 8 µM): 0.762
relative viability (HARA; first compound 0.08 µM): 0.619
relative viability (HARA; first compound 0.253 µM): 0.511
relative viability (HARA; first compound 0.8 µM): 0.646
relative viability (HARA; first compound 8 µM): 0.825
relative viability (LU99A; first compound 0.08 µM): 1.1
relative viability (LU99A; first compound 0.253 µM): 0.959
relative viability (LU99A; first compound 0.8 µM): 0.808
relative viability (LU99A; first compound 2.53 µM): 0.949
relative viability (LU99A; first compound 8 µM): 0.87
relative viability (LK-2; first compound 0.08 µM): 1.03
relative viability (LK-2; first compound 0.253 µM): 1.15
relative viability (LK-2; first compound 0.8 µM): 1.08
relative viability (LK-2; first compound 2.53 µM): 0.744
relative viability (LK-2; first compound 8 µM): 0.622
relative viability (NCI-H2170; first compound 0.08 µM): 0.269
relative viability (NCI-H2170; first compound 0.253 µM): 0.276
relative viability (NCI-H2170; first compound 0.8 µM): 0.255
relative viability (NCI-H2170; first compound 2.53 µM): 0.216
relative viability (NCI-H2170; first compound 8 µM): 0.276
relative viability (NCI-H1437; first compound 0.08 µM): 0.757
relative viability (NCI-H1437; first compound 0.253 µM): 0.785
relative viability (NCI-H1437; first compound 0.8 µM): 0.746
relative viability (NCI-H1437; first compound 2.53 µM): 0.754
relative viability (NCI-H1437; first compound 8 µM): 0.712
relative viability (EKVX; first compound 0.08 µM): 0.266
relative viability (EKVX; first compound 0.253 µM): 0.211
relative viability (EKVX; first compound 0.8 µM): 0.224
relative viability (EKVX; first compound 2.53 µM): 0.184
relative viability (EKVX; first compound 8 µM): 0.214
relative viability (NCI-H1650; first compound 0.08 µM): 0.844
relative viability (NCI-H1650; first compound 0.253 µM): 0.914
relative viability (NCI-H1650; first compound 0.8 µM): 0.775
relative viability (NCI-H1650; first compound 2.53 µM): 0.963
relative viability (NCI-H1650; first compound 8 µM): 1.09
relative viability (BEN; first compound 0.08 µM): 0.793
relative viability (BEN; first compound 0.253 µM): 0.785
relative viability (BEN; first compound 0.8 µM): 0.682
relative viability (BEN; first compound 2.53 µM): 0.645
relative viability (BEN; first compound 8 µM): 0.694
relative viability (201T; first compound 0.08 µM): 1
relative viability (201T; first compound 0.253 µM): 1.2
relative viability (201T; first compound 0.8 µM): 0.959
relative viability (201T; first compound 2.53 µM): 0.886
relative viability (201T; first compound 8 µM): 1.05
relative viability (PC-14; first compound 0.08 µM): 0.316
relative viability (PC-14; first compound 0.253 µM): 0.259
relative viability (PC-14; first compound 0.8 µM): 0.328
relative viability (PC-14; first compound 2.53 µM): 0.243
relative viability (PC-14; first compound 8 µM): 0.343
relative viability (NCI-H661; first compound 0.08 µM): 0.51
relative viability (NCI-H661; first compound 0.253 µM): 0.554
relative viability (NCI-H661; first compound 0.8 µM): 0.43
relative viability (NCI-H661; first compound 2.53 µM): 0.396
relative viability (NCI-H661; first compound 8 µM): 0.407
relative viability (CAL-12T; first compound 0.08 µM): 0.673
relative viability (CAL-12T; first compound 0.253 µM): 0.863
relative viability (CAL-12T; first compound 0.8 µM): 0.492
relative viability (CAL-12T; first compound 2.53 µM): 0.604
relative viability (CAL-12T; first compound 8 µM): 0.765
relative viability (NCI-H3122; first compound 0.08 µM): 1.03
relative viability (NCI-H3122; first compound 0.253 µM): 1.02
relative viability (NCI-H3122; first compound 0.8 µM): 0.997
relative viability (NCI-H3122; first compound 8 µM): 1.02
relative viability (COR-L23; first compound 0.08 µM): 0.868
relative viability (COR-L23; first compound 0.253 µM): 0.94
relative viability (COR-L23; first compound 0.8 µM): 0.919
relative viability (COR-L23; first compound 2.53 µM): 0.469
relative viability (COR-L23; first compound 8 µM): 1.01
relative viability (NCI-H1666; first compound 0.08 µM): 0.668
relative viability (NCI-H1666; first compound 0.253 µM): 0.872
relative viability (NCI-H1666; first compound 0.8 µM): 0.54
relative viability (NCI-H1666; first compound 2.53 µM): 0.549
relative viability (NCI-H1666; first compound 8 µM): 0.471
relative viability (NCI-H838; first compound 0.08 µM): 1.01
relative viability (NCI-H838; first compound 0.253 µM): 0.726
relative viability (NCI-H838; first compound 0.8 µM): 0.856
relative viability (NCI-H838; first compound 2.53 µM): 0.803
relative viability (NCI-H838; first compound 8 µM): 0.876
